Results reported in the SangsterLogP compilation.

Tests used:
[1] = method code SF-AS, from Fulcrand, P.; Berge, G.; Noel, A. (1978). Hydrazides as monoamine oxidase inhibitors. Hansch and Free Wilson correlations. Eur J Med Chem, 13(2)177-182.
[2] = method code SF, from Fulcrand, P.; Berge, G.; Noel, A. (1978). Hydrazides as monoamine oxidase inhibitors. Hansch and Free Wilson correlations. Eur J Med Chem, 13(2)177-182.

SMILES	logP [1]	logP [2]
CC(C)NNC(=O)C(C)Oc1ccc(Cl)cc1 (centres undefined)	2.14	–
Cc1ccc(OCC(=O)NNC(C)C)cc1	1.81	–
CC(C)NNC(=O)C(C)Oc1ccccc1 (centres undefined)	1.39	–
CC(C)NNC(=O)C(C)(C)Oc1ccc(Cl)cc1	2.56	–
O=C(COc1ccccc1)NNCc1ccccc1	2.16	–
CCNNC(=O)COc1ccccc1	1	–
CC(C)NNC(=O)C(C)Oc1ccccc1Cl (centres undefined)	2	–
Cc1ccccc1OCC(=O)NNC(C)C	1.83	–
CC(C)NNC(=O)COc1cccc(Cl)c1	1.91	–
O=C(COc1ccc(Cl)cc1)NNCc1ccccc1	2.92	–
CC(C)NNC(=O)COc1ccccc1Cl	1.82	–
CC(C)NNC(=O)C(C)Oc1cccc(Cl)c1 (centres undefined)	2.18	–
CC(C)NNC(=O)COc1ccc(Cl)cc1	–	2.01
COc1cccc(OCC(=O)NNC(C)C)c1	1.33	–
CC(C)NNC(=O)COc1ccccc1	1.24	–
COc1ccccc1OCC(=O)NNC(C)C	1.11	–
COc1ccc(OCC(=O)NNC(C)c2ccccc2)cc1 (centres undefined)	2.39	–
Cc1ccc(OCC(=O)NNC(C)c2ccccc2)cc1 (centres undefined)	2.87	–
CCNNC(=O)COc1ccc(Cl)cc1	1.73	–
Cc1cccc(OCC(=O)NNC(C)C)c1	1.77	–
CC(NNC(=O)COc1ccccc1)c1ccccc1 (centres undefined)	2.46	–
CC(C)NNC(=O)C(C)(C)Oc1ccccc1	1.88	–
Cc1cccc(OC(C)C(=O)NNC(C)C)c1 (centres undefined)	1.88	–
COc1ccc(OCC(=O)NNC(C)C)cc1	1.21	–
